Among the data in the METLIN SMRT retention time set (Domingo-Almenara et al. 2019) are RP-LC retention time values, retold here.

Each structure is given as a SMILES string.

This series is described as follows: gradient 5% acetonitrile 3 min, to 50% in 2 min, to 85% in 15 min, held 3 min, 100 µL/min. The following applies: column: Zorbax Extend-C18 2.1 x 50 mm; eluents: water / acetonitrile, 0.1% formic acid. The method, boiled down: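 Mixtures of ~100 pure standards were chromatographed on a Zorbax Extend-C18 column (2.1 × 50 mm, 1.8 μm) at 100 μL/min using water and acetonitrile, each with 0.1% formic acid. Detection used a quadrupole time-of-flight mass spectrometer in positive and negative ionization mode, and data collection spanned 3 months. Retention time was obtained from adduct peaks picked computationally and each checked manually.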
In turn, `CCOC(=O)c1ccc(NC(=O)c2ccc(=O)n(C)n2)cc1` showed an RP-LC retention time of 693 s.

For `Cc1noc(-c2cccnc2N2CCCN(Cc3ccc(F)cc3)CC2)n1`, the RP-LC retention time was found to be 634 s.

Molecule `COCCNC(=O)c1ccc2nc(CCc3ccc(NC(C)=O)cc3)[nH]c2c1` returned an RP-LC retention time of 573 s.

Turning to `O=C([C@@H]1C[C@H](F)CN1S(=O)(=O)c1ccc(Cl)cc1)N1CCCCC1`, the RP-LC retention time came out at 852 s.

For the molecule `N#Cc1ccc(C(=O)N2CC(n3cc(COCC4CC4)nn3)C2)cc1`, the RP-LC retention time is 691 s.

Molecule `Cc1ccc(S(=O)(=O)c2cnc(N3CCN(c4cccc(Cl)c4)CC3)nc2N)cc1` had an RP-LC retention time of 1190 s.

Turning to `C=CCn1c(=O)c2ccccc2n(Cc2nc(-c3cccc(OC)c3)no2)c1=O`, the RP-LC retention time worked out at 1010 s.

`CC(C)N1C(=O)c2cccnc2Sc2cc(NC(=O)Cc3cccc(Cl)c3)ccc21` had an RP-LC retention time of 940 s.

As to `COc1ccc(-c2nnc(-c3ccccc3)o2)cc1S(=O)(=O)N(C)C`, the RP-LC retention time is 840 s.

Molecule `COc1ccc(C(=O)Oc2cc(C)nn2-c2nc3ccccc3[nH]2)cc1` registered an RP-LC retention time of 643 s.

`CCC1Oc2ccc(S(=O)(=O)N3CCC(C(=O)N(C)c4cccc(C)c4)CC3)cc2NC1=O` (stereo not given) showed an RP-LC retention time of 872 s.

Molecule `CCc1ccc2c(c1)cc(S(=O)(=O)c1ccccc1)c(=O)n2CC(=O)NC1CCCC1` showed an RP-LC retention time of 942 s.

`O=C(NCCC1CCN(C(=O)Nc2ccc(F)cc2F)CC1)C1CC1` registered an RP-LC retention time of 691 s.

Consider `O=C(COc1ccccc1)N1[C@H]2CC[C@@H]1c1cnc(-c3ccccc3)nc1C2`, for which the RP-LC retention time came out at 952 s.

For `COc1ccc(-c2noc(C3CCCN3C(=O)CNC(=O)c3cccs3)n2)cc1` (stereo not given), the RP-LC retention time turned out to be 788 s.

In turn, `Cc1ccc(CC(=O)NC2CCN(c3nnc4cccc(C)n34)CC2)cc1` yielded an RP-LC retention time of 680 s.

`CSc1ccc(-c2nc3c(C)cccn3c2Nc2ccccc2C)cc1`: the RP-LC retention time was determined as 810 s.

With `CCOc1ccc(CN2C[C@@H]3C(=O)N(CCc4ccccc4)C(=O)[C@@H]3C2)cc1OC`, the RP-LC retention time is 634 s.

`COC(=O)COc1cc(-c2ccc(F)cc2)nc2ccc(NC(=O)Cc3ccccc3)cc12` returned an RP-LC retention time of 809 s.

For `O=C(NC1CC1)C1CCc2sc(C(=O)N3CCCCC3)cc2C1` (stereo not given), the RP-LC retention time came out at 711 s.

For `O=C(NCc1ccncc1)C1CCCN(c2ccc(Sc3ccc(Br)cc3)nn2)C1` (stereo not given), the RP-LC retention time amounted to 653 s.

With `COc1cc2c(cc1CNC(=O)c1ccc(Br)cc1)OCCCO2`, the RP-LC retention time stood at 939 s.

The molecule `CCn1cc(C(=O)Nc2cccc(Cl)c2)c(S(=O)(=O)N2CCSCC2)n1` came in with an RP-LC retention time of 890 s.

`CC1(C(=O)NCc2ccccc2)CN(S(C)(=O)=O)CC(=O)N1Cc1ccccc1F` (stereo not given) gave an RP-LC retention time of 818 s.

`CCC(C)c1ccc(-c2csc(NC(C)=O)n2)cc1` (stereo not given) yielded an RP-LC retention time of 1030 s.

Take `COc1cccc(Cn2c(=O)c3sccc3n(Cc3nc(-c4cccc(OC)c4)no3)c2=O)c1`: the RP-LC retention time came out at 1080 s.

Turning to `COC(=O)c1ccc(-c2nc3cnccn3c2Nc2ccc(OC)cc2)cc1`, the RP-LC retention time was found to be 826 s.

In turn, `CN1C(=O)[C@H]2CN(Cc3cc(F)ccc3F)C[C@H]2C1=O` had an RP-LC retention time of 602 s.

Take `NC(=O)C1CCN(C2=NC(=O)/C(=C\c3ccc(-c4ccc(F)cc4)o3)S2)CC1`: the RP-LC retention time came to 671 s.

As to `COc1cccc(-c2cc(NCc3ccc4c(c3)OCO4)nc(N)n2)c1`, the RP-LC retention time is 768 s.

`COc1cccc(N2CCN(CC(=O)N3CCC(C(N)=O)CC3)CC2)c1` had an RP-LC retention time of 582 s.

`Cc1ccc2c(NCc3ccc(F)cc3)c(-c3nc(C(C)C)no3)cnc2n1` displayed an RP-LC retention time of 798 s.

The molecule `O=C(c1ccc2c(c1)OCO2)N1CCN(Cc2nc(C3CC3)cs2)CC1` had an RP-LC retention time of 611 s.

`Cc1ccc(NC(=O)Nc2ccc(NC(=O)N3CCCC(C(=O)NCC4CC4)C3)cc2)cc1` (stereo not given) yielded an RP-LC retention time of 779 s.

Molecule `Cc1csc(-c2cc(S(=O)(=O)Nc3ccc(F)cc3)cn2CC(=O)N2CCCC2)n1` came in with an RP-LC retention time of 853 s.

Molecule `NC(=O)CSc1nnc(N2CCN(C(=O)c3cc4ccccc4o3)CC2)s1` returned an RP-LC retention time of 635 s.

`CCC(C)n1c(C)cc(=O)n1C(C)CC` (stereo not given) showed an RP-LC retention time of 759 s.

Molecule `CC(C)Oc1ccc(NC(=O)C2CCN(S(C)(=O)=O)c3ccccc3O2)cc1` (stereo not given) had an RP-LC retention time of 935 s.

Take `COC(=O)c1ccc(CSc2nnc(-c3cn(C)nc3OC)n2C)cc1`: the RP-LC retention time turned out to be 641 s.

Consider `Nc1cc(C2CCN(S(=O)(=O)c3ccccc3)CC2)no1`, for which the RP-LC retention time is 732 s.

Molecule `Cc1c(Cl)cccc1-n1nc(C)c2c(C(F)(F)F)cc(OCC(=O)NC(C)C)nc21` registered an RP-LC retention time of 1160 s.

As for `CCOC(=O)Cc1csc(NC(=O)CSc2nc(C)nc3sc4c(c23)CCC4)n1`, the RP-LC retention time amounted to 998 s.

The molecule `Cc1c(-c2ccc(Cl)cc2)noc1C1CCN(CCc2ccccc2)CC1` yielded an RP-LC retention time of 922 s.

Turning to `COCCNC(=O)N1c2ccccc2CC1c1nc(C(C)C)no1` (stereo not given), the RP-LC retention time came to 836 s.

As for `CCCN1C(=O)c2c(C(=O)NCc3ccccc3)ncn2CC1(C)C(=O)NCCC(C)C` (stereo not given), the RP-LC retention time worked out at 817 s.

On to `CN(C)c1ccc(C(=O)N2CCCC2c2nc(-c3ccccc3)no2)cc1` (stereo not given), for which the RP-LC retention time stood at 986 s.

`Cc1ccc(C(=O)N2CCOc3ccc(NC(=O)C4CC4)cc3C2)s1` came in with an RP-LC retention time of 790 s.

In the case of `CC1CCc2c(sc(NC(=O)Cc3ccc(Cl)s3)c2C(N)=O)C1` (stereo not given), the RP-LC retention time stood at 1000 s.

Molecule `O=C(NCCCNc1nc(Nc2cccc(NC(=O)N3CCCC3)c2)ncc1I)c1cccs1` registered an RP-LC retention time of 691 s.

As to `CC(C(=O)NC1CCSC1=O)n1nc(-n2cccn2)ccc1=O` (stereo not given), the RP-LC retention time was found to be 616 s.

In turn, `O=C(CCc1ccccc1)NCCN1CCN(c2ccc(Cl)cc2)CC1` registered an RP-LC retention time of 619 s.

The molecule `Cc1cc(SCC(=O)Nc2nc(-c3ccccc3)cs2)nc(C)n1` had an RP-LC retention time of 841 s.

With `CCCn1nc(CNC(=O)c2ccoc2)c2ccccc21`, the RP-LC retention time stood at 789 s.

`CC1(C(=O)NC2CCCC2)CC(c2ccccc2)=NO1` (stereo not given): the RP-LC retention time was determined as 700 s.

Molecule `Cn1nccc1C(=O)Nc1ccsc1-c1nc(-c2ccc(Cl)cc2)no1` registered an RP-LC retention time of 1430 s.

Take `CCC(C)(C)NC(=O)c1cc2c(s1)N(CCOC)CCCC2`: the RP-LC retention time is 1020 s.

Molecule `CCCC1c2nccn2CCCN1C(=O)c1conc1C` (stereo not given) yielded an RP-LC retention time of 568 s.

Regarding `Cn1c(=O)sc2cc(S(=O)(=O)N3CCC(C(=O)NCc4ccccn4)CC3)ccc21`, the RP-LC retention time turned out to be 611 s.

As for `COC(=O)c1ccc(NC(=O)CSc2nnc(CN3CCOCC3)o2)cc1`, the RP-LC retention time came out at 576 s.

`Cc1ccc(C(=O)N2CCc3cc(CNC(=O)c4ccnn4C)ccc32)cc1` displayed an RP-LC retention time of 821 s.
